Measurements published in patent EP0093484A2, “Antibacterial monic acid derivatives” (BEECHAM GROUP PLC, priority 1982, dated 1983).
Values after ≈ are worked out from the molar mass of the structure shown.

Assays:
[1] = test system: M. suipneumoniae JF 435; assay: Anti-mycoplasmal activity, MIC in Friis broth agarose; assay type: cell-based; conditions: Mesomycoplasma hyopneumoniae, JF435, 144 h, Friis broth solidified with 0.9% agarose, 6 days incubation at 37°C, read-out: MIC
[2] = test system: M. suipneumoniae HK(2); assay: as above; assay type: cell-based; conditions: Mesomycoplasma hyopneumoniae, 144 h, Friis broth solidified with 0.9% agarose, 6 days incubation at 37°C, read-out: MIC
[3] = test system: M. suipneumoniae PW/C/210; assay: as above; assay type: cell-based; conditions: Mesomycoplasma hyopneumoniae, 144 h, Friis broth solidified with 0.9% agarose, 6 days incubation at 37°C, read-out: MIC
[4] = test system: M. suipneumoniae LABER; assay: as above; assay type: cell-based; conditions: Mesomycoplasma hyopneumoniae, 144 h, Friis broth solidified with 0.9% agarose, 6 days incubation at 37°C, read-out: MIC
[5] = test system: M. suipneumoniae TAM 6N; assay: as above; assay type: cell-based; conditions: Mesomycoplasma hyopneumoniae, TAM6N, 144 h, Friis broth solidified with 0.9% agarose, 6 days incubation at 37°C, read-out: MIC
[6] = test system: M. suipneumoniae ATCC 25095; assay: as above; assay type: cell-based; conditions: Mesomycoplasma hyopneumoniae, ATCC25095, 144 h, Friis broth solidified with 0.9% agarose, 6 days incubation at 37°C, read-out: MIC
[7] = test system: M. hyorhinis ATCC 23234; assay: as above; assay type: cell-based; conditions: Mesomycoplasma hyorhinis, ATCC23234, 144 h, Friis broth solidified with 0.9% agarose, 6 days incubation at 37°C, read-out: MIC
[8] = test system: M. hyosynoviae ATCC 25591; assay: as above; assay type: cell-based; conditions: 144 h, Friis broth solidified with 0.9% agarose, 6 days incubation at 37°C, read-out: MIC
[9] = test system: M. bovis NCTC 10131; assay: microbe, parasite or virus in culture; assay type: cell-based; conditions: NCTC10131, 144 h
[10] = test system: M. dispar NCTC 10125; assay: Anti-mycoplasmal activity, MIC in Friis broth agarose; assay type: cell-based; conditions: 144 h, Friis broth solidified with 0.9% agarose, 6 days incubation at 37°C, read-out: MIC
[11] = test system: M. gallisepticum S6; assay: as above; assay type: cell-based; conditions: Mycoplasmoides gallisepticum, 144 h, Friis broth solidified with 0.9% agarose, 6 days incubation at 37°C, read-out: MIC
[12] = test system: M. pneumoniae ATCC 15492; assay: as above; assay type: cell-based; conditions: Mycoplasmoides pneumoniae, ATCC15492, 144 h, Friis broth solidified with 0.9% agarose, 6 days incubation at 37°C, read-out: MIC
[13] = test system: E. coli NCTC 10418; assay: Human bacteria, MIC by serial dilution in nutrient agar; assay type: cell-based; conditions: Escherichia coli, NCTC10418; E. coli NCTC 10418 (human panel); nutrient agar with 5% chocolated horse blood; 18 hours at 37°C; read-out: MIC
[14] = test system: E. coli ESS; assay: as above; assay type: cell-based; conditions: Escherichia coli, nutrient agar with 5% chocolated horse blood, 18 hours at 37°C, read-out: MIC
[15] = test system: P. mirabilis 889; assay: as above; assay type: cell-based; conditions: Proteus mirabilis, nutrient agar with 5% chocolated horse blood, 18 hours at 37°C, read-out: MIC
[16] = test system: K. aerogenes A; assay: as above; assay type: cell-based; conditions: Klebsiella aerogenes, nutrient agar with 5% chocolated horse blood, 18 hours at 37°C, read-out: MIC
[17] = test system: Ps. aeruginosa 10662; assay: as above; assay type: cell-based; conditions: Pseudomonas aeruginosa, nutrient agar with 5% chocolated horse blood, 18 hours at 37°C, read-out: MIC
[18] = test system: Pasteurella multocida 1633; assay: as above; assay type: cell-based; conditions: nutrient agar with 5% chocolated horse blood, 18 hours at 37°C, read-out: MIC
[19] = test system: Haemophilus influenzae Q1; assay: as above; assay type: cell-based; conditions: nutrient agar with 5% chocolated horse blood, 18 hours at 37°C, read-out: MIC
[20] = test system: Haemophilus influenzae Wy21; assay: as above; assay type: cell-based; conditions: nutrient agar with 5% chocolated horse blood, 18 hours at 37°C, read-out: MIC
[21] = test system: Corynebacterium xerosis 9755; assay: as above; assay type: cell-based; conditions: nutrient agar with 5% chocolated horse blood, 18 hours at 37°C, read-out: MIC
[22] = test system: Sarcina lutea 8340; assay: as above; assay type: cell-based; conditions: Micrococcus luteus, nutrient agar with 5% chocolated horse blood, 18 hours at 37°C, read-out: MIC
[23] = test system: Staph. aureus W2827; assay: as above; assay type: cell-based; conditions: Staphylococcus aureus, nutrient agar with 5% chocolated horse blood, 18 hours at 37°C, read-out: MIC
[24] = test system: Strep. faecalis I; assay: as above; assay type: cell-based; conditions: Enterococcus faecalis, nutrient agar with 5% chocolated horse blood, 18 hours at 37°C, read-out: MIC
[25] = test system: Strep. pyogenes R80/421-A; assay: as above; assay type: cell-based; conditions: Streptococcus pyogenes, nutrient agar with 5% chocolated horse blood, 18 hours at 37°C, read-out: MIC
[26] = test system: Strep. spp. 64/848-C; assay: as above; assay type: cell-based; conditions: nutrient agar with 5% chocolated horse blood, 18 hours at 37°C, read-out: MIC
[27] = test system: Strep. pneumoniae CN33; assay: as above; assay type: cell-based; conditions: Streptococcus pneumoniae, nutrient agar with 5% chocolated horse blood, 18 hours at 37°C, read-out: MIC
[28] = test system: E. coli E1; assay: Veterinary bacteria, MIC by two fold serial dilution in agar; conditions: Escherichia coli, E1, 18 h
Description: (§1) The activity of the compounds of the Examples against various organisms important in veterinary infections was determined using two fold serial dilutions in Diagnostic Sensitivity Test Agar inoculated with 10^4 organisms.

[29] = test system: S. dublin S7; assay: as above; conditions: Salmonella enterica, S7, 18 h
Description: as §1

[30] = test system: S. typhimurium S18; assay: as above; conditions: Salmonella enterica, TYPHIMURIUM, 18 h
Description: as §1

[31] = test system: Bord. bronchiseptica B08; assay: as above; conditions: Bordetella bronchiseptica, B08, 18 h
Description: as §1

[32] = test system: Bord. bronchiseptica BO9; assay: as above; conditions: Bordetella bronchiseptica, BO9, 18 h
Description: as §1

[33] = test system: Past. multocida PA1; assay: as above; conditions: Pasteurella multocida, PA1, 18 h
Description: as §1

[34] = test system: Past. haemolytica PA5; assay: as above; conditions: Mannheimia haemolytica, PA5, 18 h
Description: as §1

[35] = test system: Corynebacterium pyogenes CY1; assay: as above; conditions: CY1, 18 h
Description: as §1

[36] = test system: Staph. aureus B4 (pen. resistant); assay: as above; conditions: Staphylococcus aureus, 18 h
Description: as §1

[37] = test system: Staph. aureus 152 (pen. sens.); assay: as above; conditions: Staphylococcus aureus, 18 h
Description: as §1

[38] = test system: Staph. aureus Oxford; assay: as above; conditions: Staphylococcus aureus, 18 h
Description: as §1

[39] = test system: Strep. uberis SPU1; assay: as above; conditions: Streptococcus uberis, SPU1, 18 h
Description: as §1

[40] = test system: Strep. dysgalactiae SPD1; assay: as above; conditions: Streptococcus dysgalactiae, SPD1, 18 h
Description: as §1

Compound | MIC [1] [mg/L] | MIC [2] [mg/L] | MIC [3] [mg/L] | MIC [4] [mg/L] | MIC [5] [mg/L] | MIC [6] [mg/L] | MIC [7] [mg/L] | MIC [8] [mg/L] | MIC [9] [mg/L] | MIC [10] [mg/L] | MIC [11] [mg/L] | MIC [12] [mg/L] | MIC [13] [mg/L] | MIC [14] [mg/L] | MIC [15] [mg/L] | MIC [16] [mg/L] | MIC [17] [mg/L] | MIC [18] [mg/L] | MIC [19] [mg/L] | MIC [20] [mg/L] | other results
CSc1ccc(COC(=O)C=C(C)CC2OCC(CC3OC3C(C)C(C)O)C(O)C2O)cc1 (stereo not drawn) [Example 1, p-Methylthiobenzyl monate A] | 0.5 (≈ 1.04 µM) | 0.5 (≈ 1.04 µM) | 0.25 (≈ 0.52 µM) | 0.25 (≈ 0.52 µM) | 0.5 (≈ 1.04 µM) | 0.5 (≈ 1.04 µM) | 0.25 (≈ 0.52 µM) | 0.05 (≈ 0.104 µM) | ≤ 0.01 | 0.1 (≈ 0.208 µM) | 2.5 (≈ 5.2 µM) | 1 (≈ 2.08 µM) | 100 (≈ 208 µM) | 1 (≈ 2.08 µM) | 100 (≈ 208 µM) | > 100 | > 100 | 1 (≈ 2.08 µM) | 0.25 (≈ 0.52 µM) | 0.25 (≈ 0.52 µM) | MIC [21]: > 100 mg/L; MIC [22]: > 100 mg/L; MIC [23]: 0.5 mg/L (≈ 1.04 µM); MIC [24]: 100 mg/L (≈ 208 µM); MIC [25]: 0.1 mg/L (≈ 0.208 µM); MIC [26]: 0.5 mg/L (≈ 1.04 µM); MIC [27]: 0.5 mg/L (≈ 1.04 µM); MIC [28]: > 80 mg/L; MIC [29]: > 80 mg/L; MIC [30]: > 80 mg/L; MIC [31]: 20 mg/L (≈ 41.6 µM); MIC [32]: 5 mg/L (≈ 10.4 µM); MIC [33]: 0.156 mg/L (≈ 0.325 µM); MIC [34]: 0.312 mg/L (≈ 0.649 µM); MIC [35]: > 80 mg/L; MIC [36]: 0.156 mg/L (≈ 0.325 µM); MIC [37]: 0.156 mg/L (≈ 0.325 µM); MIC [38]: 0.156 mg/L (≈ 0.325 µM); MIC [39]: 0.039 mg/L (≈ 0.0811 µM); MIC [40]: 0.156 mg/L (≈ 0.325 µM)
CC(=CC(=O)OCc1ccc([S+](C)[O-])cc1)CC1OCC(CC2OC2C(C)C(C)O)C(O)C1O (stereo not drawn) [Example 2, p- Methylsulphinylbenzyl monate A] | 0.25 (≈ 0.503 µM) | 0.25 (≈ 0.503 µM) | 0.1 (≈ 0.201 µM) | 0.25 (≈ 0.503 µM) | 0.5 (≈ 1.01 µM) | 0.25 (≈ 0.503 µM) | 0.25 (≈ 0.503 µM) | 0.05 (≈ 0.101 µM) | ≤ 0.01 | 0.1 (≈ 0.201 µM) | 1 (≈ 2.01 µM) | 1 (≈ 2.01 µM) | > 100 | 0.5 (≈ 1.01 µM) | 50 (≈ 101 µM) | > 100 | > 100 | 0.5 (≈ 1.01 µM) | 0.05 (≈ 0.101 µM) | 0.1 (≈ 0.201 µM) | MIC [21]: > 100 mg/L; MIC [22]: > 100 mg/L; MIC [23]: 2.5 mg/L (≈ 5.03 µM); MIC [24]: 50 mg/L (≈ 101 µM); MIC [25]: 0.5 mg/L (≈ 1.01 µM); MIC [26]: 1 mg/L (≈ 2.01 µM); MIC [27]: 1 mg/L (≈ 2.01 µM); MIC [28]: > 80 mg/L; MIC [29]: > 80 mg/L; MIC [30]: > 80 mg/L; MIC [31]: 40 mg/L (≈ 80.5 µM); MIC [32]: 5 mg/L (≈ 10.1 µM); MIC [33]: 0.625 mg/L (≈ 1.26 µM); MIC [34]: 5 mg/L (≈ 10.1 µM); MIC [35]: > 80 mg/L; MIC [36]: 2.5 mg/L (≈ 5.03 µM); MIC [37]: 1.25 mg/L (≈ 2.52 µM); MIC [38]: 1.25 mg/L (≈ 2.52 µM); MIC [39]: 0.156 mg/L (≈ 0.314 µM); MIC [40]: 0.312 mg/L (≈ 0.628 µM)
CC(=CC(=O)OCc1ccc(S(C)(=O)=O)cc1)CC1OCC(CC2OC2C(C)C(C)O)C(O)C1O (stereo not drawn) [Example 3, p-Methylsulphonylbenzyl monate A] | 0.25 (≈ 0.488 µM) | 0.25 (≈ 0.488 µM) | 0.1 (≈ 0.195 µM) | 0.1 (≈ 0.195 µM) | 0.25 (≈ 0.488 µM) | 0.1 (≈ 0.195 µM) | 0.1 (≈ 0.195 µM) | 0.025 (≈ 0.0488 µM) | < 0.01 | 0.05 (≈ 0.0975 µM) | 0.5 (≈ 0.975 µM) | 0.25 (≈ 0.488 µM) | 100 (≈ 195 µM) | 0.5 (≈ 0.975 µM) | 50 (≈ 97.5 µM) | > 100 | > 100 | 0.25 (≈ 0.488 µM) | 0.05 (≈ 0.0975 µM) | 0.1 (≈ 0.195 µM) | MIC [21]: > 100 mg/L; MIC [22]: > 100 mg/L; MIC [23]: 2.5 mg/L (≈ 4.88 µM); MIC [24]: 50 mg/L (≈ 97.5 µM); MIC [25]: 0.25 mg/L (≈ 0.488 µM); MIC [26]: 0.5 mg/L (≈ 0.975 µM); MIC [27]: 0.5 mg/L (≈ 0.975 µM); MIC [28]: > 80 mg/L; MIC [29]: > 80 mg/L; MIC [30]: > 80 mg/L; MIC [31]: 20 mg/L (≈ 39 µM); MIC [32]: 2.5 mg/L (≈ 4.88 µM); MIC [33]: 0.025 mg/L (≈ 0.0488 µM); MIC [34]: 5 mg/L (≈ 9.75 µM); MIC [35]: > 80 mg/L; MIC [36]: 1.25 mg/L (≈ 2.44 µM); MIC [37]: 1.25 mg/L (≈ 2.44 µM); MIC [38]: 1.25 mg/L (≈ 2.44 µM); MIC [39]: 0.312 mg/L (≈ 0.609 µM); MIC [40]: 0.156 mg/L (≈ 0.304 µM)
